Assay results from US20220096398A1, “COMPLEXES AND COMPOSITIONS COMPRISING PROBUCOL AND USES THEREOF” (MACQUARIE UNIVERSITY, priority 2019, published 2022).

Test: Pharmacokinetic parameters after oral gavage in Sprague Dawley rats
Format: in vivo, male Sprague Dawley rats
Conditions: rat, 10 mg/kg
Method: The in vivo pharmacokinetic parameters of mesoporous silica (AMS-6) loaded with probucol (34.8 wt %) prepared according to the procedure as described in Example 1, were obtained after oral gavage to male Sprague Dawley rats at a dose of 10 mg/kg. Crystalline probucol (PB) was administered in comparison. […] Further, the maximum concentration of probucol after administration of silica loaded with probucol is approximately 10 times higher than when crystalline probucol is administered.

- AUC(0-inf) (male, Sprague Dawley, plasma): 859 ng·h/mL
- Cmax (male, Sprague Dawley, plasma): 30.9 ng/mL
- Tmax (male, Sprague Dawley, plasma): 8 h
- half-life (male, Sprague Dawley, plasma): 19.6 h
- AUC(0-t) (male, Sprague Dawley, plasma, read-out: AUC0-24): 492 ng·h/mL
- Tlast: 24 h
Structure (SMILES): CC(C)(Sc1cc(C(C)(C)C)c(O)c(C(C)(C)C)c1)Sc1cc(C(C)(C)C)c(O)c(C(C)(C)C)c1 [PB, Probucol]
